In ChEMBL document CHEMBL1681722, “5-oxo-15-HETE: total synthesis and bioactivity” (Bioorg Med Chem Lett, 2011):
The source made the active and inactive calls. The calls are words filed in the database; no cut-off is given here.

Columns and labels:
Oxoeicosanoid receptor 1 [1] = biological target: T1, Oxoeicosanoid receptor 1 (Homo sapiens, UniProt Q8TDS5); test: Agonist activity at 5-oxo-ETE receptor in human neutrophils assessed as stimulation of ca2+ mobilization; format: functional
[2] = Stability of the compound at -80 degC after 3 years by reversed-phase HPLC; format: physicochemical; settings: 26298 h
Oxoeicosanoid receptor 1 [3] = biological target: T1, Oxoeicosanoid receptor 1; test: Agonist activity at 5-oxo-ETE receptor in human neutrophils assessed as stimulation of ca2+ mobilization at 100 nM in presence of 5-oxo-ETE; format: functional

T1 sequence (Q8TDS5 whole entry): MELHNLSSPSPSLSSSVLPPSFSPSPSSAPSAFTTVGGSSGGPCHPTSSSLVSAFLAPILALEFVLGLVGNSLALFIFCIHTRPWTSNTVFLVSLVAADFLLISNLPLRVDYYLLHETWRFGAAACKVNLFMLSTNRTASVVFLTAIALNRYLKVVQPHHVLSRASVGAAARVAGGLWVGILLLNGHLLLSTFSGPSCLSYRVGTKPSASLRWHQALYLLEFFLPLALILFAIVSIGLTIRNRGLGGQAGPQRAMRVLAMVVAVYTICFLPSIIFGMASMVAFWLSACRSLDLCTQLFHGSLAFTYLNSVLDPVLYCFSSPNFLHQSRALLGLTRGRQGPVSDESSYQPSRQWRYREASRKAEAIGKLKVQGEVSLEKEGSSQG

EC50 (Oxoeicosanoid receptor 1 [1])	Stability [2]	Activity (Oxoeicosanoid receptor 1 [3])	Structure (SMILES)
7 nM			CCCCC/C=C\C/C=C\C/C=C\C=C\C(=O)CCCC(=O)O [5-OXO-ETE]
56 nM	Stable	inactive	CCCCC[C@H](O)/C=C/C=C\C/C=C\C=C\C(=O)CCCC(=O)O
